The values below come from paper PMC10484737 (Nucleic Acids Research, 2023).

The target of data set [1] is TsaN^749-1008 (TcdA domain of P. salinus TsaN) (Pandoravirus salinus). Briefly: SEC-MALS. In general terms: In gel filtration, larger molecules generally elute earlier.
The target of data set [2] is T1, TsaN^1−392 (TsaD domain of TsaN) (Pandoravirus salinus, UniProt A0A291ATS8).
T1 sequence (A0A291ATS8 1-392): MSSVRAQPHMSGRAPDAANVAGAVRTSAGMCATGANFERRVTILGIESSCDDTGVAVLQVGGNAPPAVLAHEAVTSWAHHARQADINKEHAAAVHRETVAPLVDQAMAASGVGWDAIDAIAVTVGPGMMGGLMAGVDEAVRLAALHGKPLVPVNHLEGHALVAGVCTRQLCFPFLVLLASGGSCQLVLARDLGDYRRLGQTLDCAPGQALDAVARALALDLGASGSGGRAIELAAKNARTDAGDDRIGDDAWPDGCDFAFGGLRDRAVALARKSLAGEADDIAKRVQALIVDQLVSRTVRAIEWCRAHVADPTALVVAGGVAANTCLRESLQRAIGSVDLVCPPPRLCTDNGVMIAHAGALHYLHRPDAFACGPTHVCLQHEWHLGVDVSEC
Briefly: ITC, nucleotide binding to the TsaD domain. To be noted: for ΔG / ΔH: 30 μM TsaN^1−392 titrated with 360 μM ligand. Also noted: species or system P. salinus.

In data set [3] the target is T2, TsaN^749−1008 (TcdA domain of TsaN) (Pandoravirus salinus, UniProt A0A291ATS8).
T2 sequence (A0A291ATS8 749-1008): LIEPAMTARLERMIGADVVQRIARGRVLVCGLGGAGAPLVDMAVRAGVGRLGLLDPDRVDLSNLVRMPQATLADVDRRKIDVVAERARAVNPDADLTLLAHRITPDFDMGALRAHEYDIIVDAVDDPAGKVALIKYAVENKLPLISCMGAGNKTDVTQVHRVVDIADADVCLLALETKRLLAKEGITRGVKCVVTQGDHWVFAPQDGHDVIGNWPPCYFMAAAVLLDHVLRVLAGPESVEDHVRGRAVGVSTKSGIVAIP
Nature of the data set: ITC, ligand binding to the TcdA domain. Details: species or system P. salinus. Background: Isothermal titration calorimetry measures the heat released or taken up as one component is titrated into another.

Data set [4] has as its target Pandoravirus salinus TsaN (TsaD-TsaC-SUA5-TcdA modular protein), full length (Pandoravirus salinus). Nature of the data set: SEC-MALS.
Data set [5] has the same target. Briefly: SEC.
A further data set has as its target TsaN^(1−392)H155A/H159A. Briefly: ITC, ATP binding to the TsaD domain variant. Also noted: species or system P. salinus. To be noted: 30 μM TsaN^(1−392)H155A/H159A titrated with 360 μM ligand.
The subject of another data set is TsaN^749−1008. Briefly: Enzymatic assay of ct^6A, LC–MS. The class given is biochemical, P. salinus. The settings on record: for ct^6A formation from synthetic t^6A in the presence of the nucleotide (ct^6A/t^6A): TsaN^749−1008 and synthetic t^6A plus ATP, AMPCPP, AMP or AMP + PPi.
A further data set concerns TsaN^H155A/H159A. Nature of the data set: NADH-coupled ATPase assay. The class given is biochemical, P. salinus. To be noted: 5 μM TsaN^H155A/H159A.
In a further data set the target is T3, TsaN (Pandoravirus salinus, UniProt A0A291ATS8).
T3 sequence (A0A291ATS8 1-1008): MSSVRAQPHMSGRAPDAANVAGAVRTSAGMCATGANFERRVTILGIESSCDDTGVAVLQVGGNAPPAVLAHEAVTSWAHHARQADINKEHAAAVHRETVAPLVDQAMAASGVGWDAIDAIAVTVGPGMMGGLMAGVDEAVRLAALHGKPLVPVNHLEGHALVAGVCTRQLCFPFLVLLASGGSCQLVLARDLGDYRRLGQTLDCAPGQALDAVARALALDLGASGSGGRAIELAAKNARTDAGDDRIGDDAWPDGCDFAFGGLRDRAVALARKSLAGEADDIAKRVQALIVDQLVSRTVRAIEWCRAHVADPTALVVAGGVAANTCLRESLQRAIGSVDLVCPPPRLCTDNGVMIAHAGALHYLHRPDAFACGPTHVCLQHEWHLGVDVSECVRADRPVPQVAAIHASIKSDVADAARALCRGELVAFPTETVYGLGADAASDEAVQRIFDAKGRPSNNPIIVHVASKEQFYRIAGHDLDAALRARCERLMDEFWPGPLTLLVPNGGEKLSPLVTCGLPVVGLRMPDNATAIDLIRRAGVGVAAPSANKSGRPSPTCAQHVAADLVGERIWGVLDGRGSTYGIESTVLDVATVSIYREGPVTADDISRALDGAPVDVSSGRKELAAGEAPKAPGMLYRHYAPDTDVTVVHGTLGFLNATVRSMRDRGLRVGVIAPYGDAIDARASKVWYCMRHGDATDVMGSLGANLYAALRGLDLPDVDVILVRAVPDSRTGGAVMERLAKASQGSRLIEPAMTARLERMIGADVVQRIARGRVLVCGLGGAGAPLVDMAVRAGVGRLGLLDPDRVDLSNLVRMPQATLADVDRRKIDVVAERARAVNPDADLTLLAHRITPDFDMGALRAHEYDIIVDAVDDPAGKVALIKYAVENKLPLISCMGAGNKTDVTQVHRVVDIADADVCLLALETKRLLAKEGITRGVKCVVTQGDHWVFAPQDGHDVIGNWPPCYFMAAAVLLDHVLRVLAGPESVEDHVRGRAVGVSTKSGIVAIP
Briefly: Effect of divalent metal ions on biosynthesis of t^6ADP and t^6ATP. The class given is biochemical, P. salinus. The settings on record: pre-bound metals removed by dialysis with EDTA.

Substrate in data set [6]: Nc1ncnc2c1ncn2[C@@H]1O[C@H](COP(=O)(O)OP(=O)(O)OP(=O)(O)O)[C@@H](O)[C@H]1O
Nature of the data set: NADH-coupled ATPase assay. The data set is classed as biochemical, P. salinus. To be noted: 25°C, pH 7.5.

Where [7] appears, read: 30 μM TsaN^749−1008 titrated with 360 μM ligand.
The mark [8] stands for this setting: 30 μM TsaN^749−1008, 360 μM ligand, in the presence of 100 μM synthetic t^6A.
Setting [9] is: other: 5 μM TsaN^1−392, varying ATP.

Entries after “also recorded” stand apart in the source; their conditions may differ.

What is called stoichiometry N is the number of molecules, sites or subunits per partner or assembly. In data set [1], “TsaN^749-1008 (TcdA domain of P. salinus TsaN) (domain or fragment)” registered a stoichiometry N of 2.

Consider `Nc1ncnc2c1ncn2[C@@H]1O[C@H](COP(=O)(O)OP(=O)(O)O)[C@@H](O)[C@H]1O` [ADP], for which the “ITC binding to AMP-bound TsaN^1-392” value in data set [2] (30 μM AMP-bound TsaN^1-392 titrated with 360 μM ADP, data not shown) is listed as “no binding curves”. Besides, in data set [2], the ΔG was -7.05 kcal/mol and the ΔH was -2.74 ± 0.62 kcal/mol. For the same molecule, in [3] (setting [7]), the “K D” value was “not able to determine the binding; also recorded: No binding”, the “N (sites)” value is recorded as “No binding”, the ΔG result is “No binding” and the ΔH entry is “No binding”.

Turning to “Pandoravirus salinus TsaN (TsaD-TsaC-SUA5-TcdA modular protein), full length (enzyme)”, the stoichiometry N in data set [4] and in data set [5] was 2 throughout.

In the case of `Nc1ncnc2c1ncn2[C@@H]1O[C@H](CO)[C@@H](O)[C@H]1O` [A, adenosine], in data set [2], the ΔG result was “No binding” and the ΔH entry is “No binding”. In addition, in data set [3] (setting [7]), the “K D” value is on record as “not able to determine the binding; also recorded: No binding”, the “N (sites)” value is “No binding”, the ΔG entry is recorded as “No binding” and the ΔH entry was “No binding”.

For `Nc1ncnc2c1ncn2[C@@H]1O[C@H](COP(=O)(O)OP(=O)(O)OP(=O)(O)O)[C@@H](O)[C@H]1O` [ATP], the “K D” value at TsaN^(1−392)H155A/H159A is on record as “does not bind; also recorded: No binding”. Besides, in the data set with TsaN^749−1008, the “ct^6A formation from synthetic t^6A in the presence of the nucleotide (ct^6A/t^6A)” value (from here on “ct^6A formation from synthetic t^6A”) is given as “efficient conversion of t^6A to ct^6A”. Besides, in the data set with TsaN^749−1008 (in the absence of synthetic t^6A, data not shown), the ATP hydrolysis entry was “not hydrolyzed”. In data set [3] (setting [7]), the “K D” value is listed as “not able to determine the binding; also recorded: No binding”, the “N (sites)” value is listed as “No binding”, the ΔG entry is “No binding” and the ΔH entry is “No binding”. Besides, the “production of ADP in the ATPase assay” value in the data set on TsaN^H155A/H159A is reported as “not detected”.

Turning to `Nc1ncnc2c1ncn2[C@@H]1O[C@H](COP(=O)(O)O)[C@@H](O)[C@H]1O` [AMP], in data set [2], the ΔG was -6.49 kcal/mol and the ΔH was -4.74 ± 1.46 kcal/mol. Also, the “ct^6A formation from synthetic t^6A” value in the data set with TsaN^749−1008 is on record as “not observed the formation of ct^6A”. Also, in [3] (setting [7]), the “K D” value is recorded as “not able to determine the binding; also recorded: No binding”, the “N (sites)” value was “No binding”, the ΔG entry is reported as “No binding” and the ΔH entry is on record as “No binding”.

As usually defined, the Kd is the equilibrium constant for the complex coming apart. In [2], `Nc1ncnc2c1ncn2[C@@H]1O[C@H](CO[P@](=O)(O)O[P@](=O)(O)O[P@@](=O)(O)S)[C@@H](O)[C@H]1O` [ATPγS] displayed a Kd of 10.9 ± 8.91 µM, a ΔG of -6.77 kcal/mol and a ΔH of -6.02 ± 2.38 kcal/mol.

Take `Nc1ncnc2c1ncn2[C@@H]1O[C@H](COP(=O)(O)CP(=O)(O)OP(=O)(O)O)[C@@H](O)[C@H]1O` [AMPCPP]: in the data set on TsaN^749−1008, the “ct^6A formation from synthetic t^6A” value was “not observed the formation of ct^6A”. Further, in data set [3] (setting [8]), the “K D” value is “not observed a binding signal; also recorded: No binding”, the “N (sites)” value is recorded as “No binding”, the ΔG result is “No binding” and the ΔH entry is reported as “No binding”.

Take `[Cl][Mn][Cl]` [MnCl2]: the “effect of divalent metal ion on catalytic activity of TsaN (t^6A/A)” value on TsaN was “stimulated the catalytic activity”.

B1: TsaN (Pandoravirus salinus) (protein)
chain: MSSVRAQPHMSGRAPDAANVAGAVRTSAGMCATGANFERRVTILGIESSCDDTGVAVLQVGGNAPPAVLAHEAVTSWAHHARQADINKEHAAAVHRETVAPLVDQAMAASGVGWDAIDAIAVTVGPGMMGGLMAGVDEAVRLAALHGKPLVPVNHLEGHALVAGVCTRQLCFPFLVLLASGGSCQLVLARDLGDYRRLGQTLDCAPGQALDAVARALALDLGASGSGGRAIELAAKNARTDAGDDRIGDDAWPDGCDFAFGGLRDRAVALARKSLAGEADDIAKRVQALIVDQLVSRTVRAIEWCRAHVADPTALVVAGGVAANTCLRESLQRAIGSVDLVCPPPRLCTDNGVMIAHAGALHYLHRPDAFACGPTHVCLQHEWHLGVDVSECVRADRPVPQVAAIHASIKSDVADAARALCRGELVAFPTETVYGLGADAASDEAVQRIFDAKGRPSNNPIIVHVASKEQFYRIAGHDLDAALRARCERLMDEFWPGPLTLLVPNGGEKLSPLVTCGLPVVGLRMPDNATAIDLIRRAGVGVAAPSANKSGRPSPTCAQHVAADLVGERIWGVLDGRGSTYGIESTVLDVATVSIYREGPVTADDISRALDGAPVDVSSGRKELAAGEAPKAPGMLYRHYAPDTDVTVVHGTLGFLNATVRSMRDRGLRVGVIAPYGDAIDARASKVWYCMRHGDATDVMGSLGANLYAALRGLDLPDVDVILVRAVPDSRTGGAVMERLAKASQGSRLIEPAMTARLERMIGADVVQRIARGRVLVCGLGGAGAPLVDMAVRAGVGRLGLLDPDRVDLSNLVRMPQATLADVDRRKIDVVAERARAVNPDADLTLLAHRITPDFDMGALRAHEYDIIVDAVDDPAGKVALIKYAVENKLPLISCMGAGNKTDVTQVHRVVDIADADVCLLALETKRLLAKEGITRGVKCVVTQGDHWVFAPQDGHDVIGNWPPCYFMAAAVLLDHVLRVLAGPESVEDHVRGRAVGVSTKSGIVAIP
For orientation: Km means the concentration of substrate that gives half-maximal velocity. What is called Vmax is the rate approached at saturating substrate. For B1, in [6] (other: 5 μM TsaN, varying ATP), the Km is 40 µM and the Vmax worked out at 0.015 µM/s.

B2: TsaN^1−392 (Pandoravirus salinus) (protein)
chain: MSSVRAQPHMSGRAPDAANVAGAVRTSAGMCATGANFERRVTILGIESSCDDTGVAVLQVGGNAPPAVLAHEAVTSWAHHARQADINKEHAAAVHRETVAPLVDQAMAASGVGWDAIDAIAVTVGPGMMGGLMAGVDEAVRLAALHGKPLVPVNHLEGHALVAGVCTRQLCFPFLVLLASGGSCQLVLARDLGDYRRLGQTLDCAPGQALDAVARALALDLGASGSGGRAIELAAKNARTDAGDDRIGDDAWPDGCDFAFGGLRDRAVALARKSLAGEADDIAKRVQALIVDQLVSRTVRAIEWCRAHVADPTALVVAGGVAANTCLRESLQRAIGSVDLVCPPPRLCTDNGVMIAHAGALHYLHRPDAFACGPTHVCLQHEWHLGVDVSEC
Consider B2, for which, in [6] (setting [9]), the Michaelis-Menten constant (Km) was determined as 40 µM and the maximal velocity (Vmax) is 0.015 µM/s.
